What was measured:
[1] = target: T1, recombinant human transglutaminase 2 (Homo sapiens, UniProt P21980); test: Transglutaminase assay (DCC-assay): incorporation of dansylcadaverine into dimethylcasein; assay type: biochemical; settings: recombinant human TG2 10 nM; dansylcadaverine incorporation into dimethylcasein; read-out: IC50 TG2
T1 construct: purchased Zedira T022
T1 sequence (P21980 1-687): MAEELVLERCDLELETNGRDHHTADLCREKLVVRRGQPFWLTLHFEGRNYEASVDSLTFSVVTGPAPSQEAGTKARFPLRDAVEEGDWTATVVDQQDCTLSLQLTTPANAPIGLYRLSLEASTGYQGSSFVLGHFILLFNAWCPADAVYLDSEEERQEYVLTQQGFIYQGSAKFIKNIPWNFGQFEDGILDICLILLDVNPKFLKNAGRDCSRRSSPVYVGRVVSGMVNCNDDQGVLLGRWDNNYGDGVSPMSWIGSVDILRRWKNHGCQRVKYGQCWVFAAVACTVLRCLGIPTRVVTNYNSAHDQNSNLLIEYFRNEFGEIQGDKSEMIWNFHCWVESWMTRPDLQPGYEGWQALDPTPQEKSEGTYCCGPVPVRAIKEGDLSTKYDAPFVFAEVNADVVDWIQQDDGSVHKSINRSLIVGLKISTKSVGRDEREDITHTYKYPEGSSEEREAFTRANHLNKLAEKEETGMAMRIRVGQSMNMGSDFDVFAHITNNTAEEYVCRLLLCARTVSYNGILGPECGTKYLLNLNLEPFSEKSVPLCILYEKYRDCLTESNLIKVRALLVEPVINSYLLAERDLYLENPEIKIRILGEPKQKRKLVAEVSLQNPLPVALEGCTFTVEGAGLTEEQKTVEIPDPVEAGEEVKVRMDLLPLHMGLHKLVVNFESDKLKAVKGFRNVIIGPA
In short: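 IC50 is the inhibitor level that blocks 50% of initial activity. Activity is the fluorescence slope (λex 330, λem 500 nm) between 20 and 30 min of a 37 °C run, relative to a 2% DMSO control. The enzyme is recombinant human tissue transglutaminase, 10 nM final, tested against a 1:2 inhibitor dilution series in a pH 8.0 mix with 10 mM CaCl2, 10 mM glutathione, 16.7 µM dansylcadaverine and 4 µM N,N-dimethylcasein.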

[2] = logD by shake flask method (octanol / PBS pH 7.4, HPLC); assay type: physicochemical; settings: octanol / PBS pH 7.4, shake flask
In short: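 LogD obtained by HPLC measurement of how the compound distributes between PBS (pH 7.4) and octanol in a shake-flask experiment.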

[3] = Caco-2 permeability assay (CacoReady kit); assay type: in vitro ADME; settings: human, Caco-2, Caco-2 barrier, CacoReady kit; above 1×10^−6 cm/s classified as permeable
In short: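 Intestinal permeability modelled with kit-supplied Caco-2 barriers, run as the maker specifies; each compound reported as Papp.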

| SMILES | IC50 [1] | logD [2] | Papp [3] |
| --- | --- | --- | --- |
| CNC(=O)C(=O)CC[C@H](NC(=O)c1nc(C)c(C)s1)C(=O)Nc1cccn(CC(=O)NC2C3CC4CC(C3)CC2C4)c1=O (stereo partly drawn) [II-38, (S)-2-(4,5-dimethylthiazole-2-carboxamido)-N1-(1-(2-(2-adamantylamino)-2-oxoethyl)-2-oxo-1,2-dihydropyridin-3-yl)-N6-methyl-5-oxohexanediamide] | 400 to 2500 nM | 3 to 5 | 1 to 10 ×10⁻⁶ cm/s |
| CNC(=O)C(=O)CC[C@H](NC(=O)c1cc(Cl)sc1Cl)C(=O)Nc1cccn(CC(=O)N[C@@H]2C[C@H]3CC[C@@H]2C3)c1=O [II-128, (2S)-N1-(1-(2-((1R,2R,4S)-bicyclo[2.2.1]heptan-2-ylamino)-2-oxoethyl)-2-oxo-1,2-dihydropyridin-3-yl)-2-(2,5-dichlorothiophene-3-carboxamido)-N6-methyl-5-oxohexanediamide] | 40 to 400 nM | 1 to 3 | 1 to 10 ×10⁻⁶ cm/s |
| CNC(=O)C(=O)CC[C@H](NC(=O)c1coc2ccccc12)C(=O)Nc1cccn(CC(=O)NC2C3CC4CC(C3)CC2C4)c1=O (stereo partly drawn) [II-136, (S)-2-(benzofuran-3-carboxamido)-N1-(1-(2-(2-adamantylamino)-2-oxoethyl)-2-oxo-1,2-dihydropyridin-3-yl)-N6-methyl-5-oxohexanediamide] | 40 to 400 nM | 1 to 3 | 1 to 10 ×10⁻⁶ cm/s |
| CNC(=O)C(=O)CC[C@H](NC(=O)c1oc2ccccc2c1C)C(=O)Nc1cccn(CC(=O)NC23CCC(C2)C3)c1=O [II-169, (S)-N1-(1-(2-(bicyclo[2.1.1]hexan-1-ylamino)-2-oxoethyl)-2-oxo-1,2-dihydropyridin-3-yl)-N6-methyl-2-(3-methylbenzofuran-2-carboxamido)-5-oxohexanediamide] | < 40 nM | < 1 | 1 to 10 ×10⁻⁶ cm/s |
| O=C(Cn1cccc(NC(=O)[C@H](CCC(=O)C(=O)NC2CC2)NC(=O)c2cc3ccccc3o2)c1=O)NC1C2CC3CC(C2)CC1C3 (stereo partly drawn) [II-121, (S)-2-(benzofuran-2-carboxamido)-N6-cyclopropyl-N1-(1-(2-(2-adamantylamino)-2-oxoethyl)-2-oxo-1,2-dihydropyridin-3-yl)-5-oxohexanediamide] | 40 to 400 nM | 3 to 5 | 1 to 10 ×10⁻⁶ cm/s |
| Cc1cn2c(C(=O)N[C@@H](CCC(=O)C(=O)NC(C)(C)C)C(=O)Nc3cccn(CC(=O)NC4C5CC6CC(C5)CC4C6)c3=O)csc2n1 (stereo partly drawn) [II-177, (S)-N1-tert-butyl-N6-(1-(2-(2-adamantylamino)-2-oxoethyl)-2-oxo-1,2-dihydropyridin-3-yl)-5-(6-methylimidazo[2,1-b]thiazole-3-carboxamido)-2-oxohexanediamide] | 400 to 2500 nM | 3 to 5 | 1 to 10 ×10⁻⁶ cm/s |
| CNC(=O)C(=O)CC[C@H](NC(=O)c1cc(Br)cs1)C(=O)Nc1cccn(CC(=O)NC2C3CC4CC(C3)CC2C4)c1=O (stereo partly drawn) [II-40, (S)-2-(4-bromothiophene-2-carboxamido)-N1-(1-(2-(2-adamantylamino)-2-oxoethyl)-2-oxo-1,2-dihydropyridin-3-yl)-N6-methyl-5-oxohexanediamide] | < 40 nM | 3 to 5 | < 1 ×10⁻⁶ cm/s |
| CNC(=O)C(=O)CC[C@H](NC(=O)c1oc2ccccc2c1C)C(=O)Nc1cccn(CC(=O)N[C@H]2C[C@H]3CC[C@@H]2C3)c1=O [II-90, (S)-N1-(1-(2-((1R,2S,4S)-bicyclo[2.2.1]heptan-2-ylamino)-2-oxoethyl)-2-oxo-1,2-dihydropyridin-3-yl)-N6-methyl-2-(3-methylbenzofuran-2-carboxamido)-5-oxohexanediamide] | 40 to 400 nM | 1 to 3 | < 1 ×10⁻⁶ cm/s |
| CNC(=O)C(=O)CC[C@H](NC(=O)c1ccncc1)C(=O)Nc1cccn(CC(=O)NC2C3CC4CC(C3)CC2C4)c1=O (stereo partly drawn) [II-112, (S)-2-(isonicotinamido)-N1-(1-(2-(2-adamantylamino)-2-oxoethyl)-2-oxo-1,2-dihydropyridin-3-yl)-N6-methyl-5-oxohexanediamide] | < 40 nM | 1 to 3 | < 1 ×10⁻⁶ cm/s |
| CNC(=O)C(=O)CC[C@H](NC(=O)c1cc(Br)c(Cl)s1)C(=O)Nc1cccn(CC(=O)NC2C3CC4CC(C3)CC2C4)c1=O (stereo partly drawn) [II-44, (S)-2-(4-bromo-5-chlorothiophene-2-carboxamido)-N1-(1-(2-(2-adamantylamino)-2-oxoethyl)-2-oxo-1,2-dihydropyridin-3-yl)-N6-methyl-5-oxohexanediamide] | < 40 nM | 3 to 5 | 1 to 10 ×10⁻⁶ cm/s |
| CNC(=O)C(=O)CC[C@H](NC(=O)[C@@H]1CCCN1C)C(=O)Nc1cccn(CC(=O)NC2C3CC4CC(C3)CC2C4)c1=O (stereo partly drawn) [II-54, (S)-N1-(1-(2-(2-adamantylamino)-2-oxoethyl)-2-oxo-1,2-dihydropyridin-3-yl)-N6-methyl-2-((S)-1-methylpyrrolidine-2-carboxamido)-5-oxohexanediamide] | 40 to 400 nM | 1 to 3 | < 1 ×10⁻⁶ cm/s |
| CNC(=O)C(=O)CC[C@H](NC(=O)c1oc2ccccc2c1C)C(=O)Nc1cccn(CC(=O)NC23CC4CC5C2C[C@@H]2C[C@H]5C(C4)[C@H]3C2)c1=O (stereo in doubt) [II-104, (S)-N1-(1-(2-(diamantane-1-amino)-2-oxoethyl)-2-oxo-1,2-dihydropyridin-3-yl)-N6-methyl-2-(3-methylbenzofuran-2-carboxamido)-5-oxohexanediamide] | 40 to 400 nM | 1 to 3 | 1 to 10 ×10⁻⁶ cm/s |
| CNC(=O)C(=O)CC[C@H](NC(=O)c1sc(C(F)(F)F)nc1C)C(=O)Nc1cccn(CC(=O)N[C@@H]2C[C@@H]3CC[C@H]2C3)c1=O [II-154, (S)-N1-(1-(2-((1S,2R,4R)-bicyclo[2.2.1]heptan-2-ylamino)-2-oxoethyl)-2-oxo-1,2-dihydropyridin-3-yl)-N6-methyl-2-(4-methyl-2-(trifluoromethyl)thiazole-5-carboxamido)-5-oxohexanediamide] | 40 to 400 nM | 1 to 3 | 1 to 10 ×10⁻⁶ cm/s |
| C=CCNC(=O)C(=O)CC[C@H](NC(=O)c1oc2ccccc2c1C)C(=O)Nc1cccn(CC(=O)NC2C3CC4CC(C3)CC2C4)c1=O (stereo partly drawn) [II-117, (S)-N1-allyl-N6-(1-(2-(2-adamantylamino)-2-oxoethyl)-2-oxo-1,2-dihydropyridin-3-yl)-5-(3-methylbenzofuran-2-carboxamido)-2-oxohexanediamide] | 40 to 400 nM | 3 to 5 | 1 to 10 ×10⁻⁶ cm/s |
| CNC(=O)C(=O)CC[C@H](NC(=O)c1cncn1C)C(=O)Nc1cccn(CC(=O)NC23CC4CC(CC(C4)C2)C3)c1=O [II-207, (S)-N1-(1-(2-(1-adamantylamino)-2-oxoethyl)-2-oxo-1,2-dihydropyridin-3-yl)-N6-methyl-2-(1-methyl-1H-imidazole-5-carboxamido)-5-oxohexanediamide] | 40 to 400 nM | < 1 | < 1 ×10⁻⁶ cm/s |
| NC(=O)C(=O)CC[C@H](NC(=O)c1cc2ccccc2o1)C(=O)Nc1cccn(CC(=O)N[C@@H]2C[C@H]3CC[C@@H]2C3)c1=O [II-146, (S)-2-(benzofuran-2-carboxamido)-N1-(1-(2-((1R,2R,4S)-bicyclo[2.2.1]heptan-2-ylamino)-2-oxoethyl)-2-oxo-1,2-dihydropyridin-3-yl)-5-oxohexanediamide] | < 40 nM | < 1 | 1 to 10 ×10⁻⁶ cm/s |
| CNC(=O)C(=O)CC[C@H](NC(=O)c1ccc2ccoc2c1)C(=O)Nc1cccn(CC(=O)NC2C3CC4CC2CC(C(N)=O)(C4)C3)c1=O (stereo partly drawn) [II-195, (S)-2-(benzofuran-6-carboxamido)-N1-(1-(2-(4-aminoadamantane-1-carboxamide)-2-oxoethyl)-2-oxo-1,2-dihydropyridin-3-yl)-N6-methyl-5-oxohexanediamide] | 40 to 400 nM | < 1 | < 1 ×10⁻⁶ cm/s |
| CNC(=O)C(=O)CC[C@H](NC(=O)c1nc2ccccc2[nH]1)C(=O)Nc1cccn(CC(=O)NC2C3CC4CC(C3)CC2C4)c1=O (stereo partly drawn) [II-12, (S)-2-(1H-benzo[d]imidazole-2-carboxamido)-N1-(1-(2-(2-adamantylamino)-2-oxoethyl)-2-oxo-1,2-dihydropyridin-3-yl)-N6-methyl-5-oxohexanediamide] | 40 to 400 nM | 3 to 5 | < 1 ×10⁻⁶ cm/s |
| CNC(=O)C(=O)CC[C@H](NC(=O)c1cc(Cl)sc1Cl)C(=O)Nc1cccn(CC(=O)N[C@@H]2C[C@@H]3CC[C@H]2C3)c1=O [II-155, (S)-N1-(1-(2-((1S,2R,4R)-bicyclo[2.2.1]heptan-2-ylamino)-2-oxoethyl)-2-oxo-1,2-dihydropyridin-3-yl)-2-(2,5-dichlorothiophene-3-carboxamido)-N6-methyl-5-oxohexanediamide] | < 40 nM | 1 to 3 | 1 to 10 ×10⁻⁶ cm/s |

Reference: patent publication US20240383856A1 (Zedira GmbH, priority 2021, published 2024)
